Reference: PMC11232398, “Antimalarial activity of cecropin antimicrobial peptides derived from Anopheles mosquitoes” (Antimicrobial Agents and Chemotherapy, 2024)
pIC50: −log10 of the molar value. Like-named read-outs stand apart in the source and are kept apart here.

Tests used:
[1] = test system: P. falciparum 3D7 (sensitive strain); assay: In vitro antimalarial activity, 3-day inhibition assay; type: cell-based, Plasmodium falciparum
Description: Blood stages of the laboratory clones P. falciparum 3D7 (sensitive strain), P. falciparum 803 (artemisinin-resistant strain), and P. falciparum Dd2 (chloroquine-resistant strain) were cultured in vitro according to the method of Trager and Jensens with minor modifications ([37]). Briefly, cultures were maintained in O-positive human erythrocytes (RBCs) as host cells at 2% hematocrit and maintained in complete medium (CM) [RPMI-1640 culture medium supplemented with NaHCO3 (2 mg/mL), hypoxanthine (50 µg/mL), HEPES (5.96 mg/mL), albumax II (1%), and gentamicin (40 µg/mL)]. The cultures were diluted to 1% parasitemia and 2% hematocrit in CM and incubated in a humidified atmosphere with 5% O2, 5% CO2, and 90% N2 at 37°C. Prior to experiments, the cultures were highly synchronized for ring stages using 5% sorbitol twice at a 40-h interval. Briefly, ring stage cultures were centrifuged and the pellet was washed once in incomplete medium (ICM, RPMI-1640 without addition). Then, the pellet was resuspended in 5% sorbitol and incubated at 37°C for 10 min. After incubation, the suspension was centrifuged and the pellet was washed once and resuspended in medium. The development of the parasite was observed using light microscopy, and parasitemia was determined by counting at least 10,000 RBCs on Giemsa’s solution-stained thin blood smears.
Highly synchronous ring stage parasites were used to investigate the in vitro antimalarial activity of the peptides. For preliminary screening of in vitro antimalarial activity, a 3-day inhibition assay was used to test the antimalarial activity of An-cecA, An-cecB, and An-cecC. […] For IC50 assay, a series of concentrations of peptides were added to the parasite culture. The concentrations of An-cecB were 5, 15, 20, 25, 30, 35, and 40 µM, while those of An-cecB-1 were 20, 30, 40, 50, 60, 70, 80, and 90 µM. After 72 hours of incubation, the antimalarial effects of peptides were estimated. Thin blood films stained with Giemsa’s solution were counted under a microscope. The parasitemia of cultures treated with peptides was compared with that of control. IC50 was calculated by GraphPad Prism.

Bacillus subtilis (ATCC) = assay: Antimicrobial assay, broth dilution; type: cell-based; details: B. subtilis
Description: (§1) Gram-positive bacteria S. aureus, B. subtilis, and Gram-negative E. coli were used in antimicrobial assays. Bacteria were first grown in LB (Luria-Bertani) broth to an absorbance of 0.8 at 600 nm. The antibacterial behavior of the peptides was studied via the agar disc diffusion assay and broth microdilution method ([41], [42]). The agar plates were made by pouring 20 mL of LB broth containing 1.5% agar into 60-mm Petri dishes. Then, a 100-µL bacterial suspension (10^6 CFU/mL) was spread over the LB agar plate. Ten microliters of the 2-mg/mL peptide sample was carefully dropped onto sterile 2-mm diameter paper discs that had been previously attached to the plate. The plates were carefully placed in an incubator at 37°C for 24 hours. If an examined sample had antimicrobial activity, a clear zone was observed around the filter paper representing inhibition of bacterial growth. The MIC was determined by the broth dilution method, and the absorbance value was measured at an optical density at 600 nm (OD600) to determine the inhibition rate of peptides at different concentrations against each bacteria. Then, the MIC at which no visible growth occurred was recorded ([38]). The MIC50 was calculated by GraphPad Prism.

[2] = test system: Escherichia coli (ATCC 25922); assay: Antimicrobial assay, broth dilution; type: cell-based; details: E. coli
Description: as §1

[3] = test system: Staphylococcus aureus (ATCC 6538); assay: Antimicrobial assay, broth dilution; type: cell-based; details: S. aureus
Description: as §1

[4] = test system: methyl-β-cyclodextrin-treated RBCs; assay: Hemolytic activity on cholesterol-depleted erythrocytes; type: cell-based, human; details: RBCs treated with 7.5 mM methyl-β-cyclodextrin for 2 hours at 37°C
Source text: Cholesterol is the main component of the RBC membrane and is important for maintaining its stability ([39]). Plasmodium falciparum infection efficiently depletes the red blood cells of cholesterol, which renders […] membranes susceptible to lysis ([40]). Therefore, methyl-β-cyclodextrin treatment was used to simulate the RBC cholesterol depletion caused by infection with Plasmodium. RBCs were washed once and then resuspended with PBS at 0.5% hematocrit. After treatment with the indicated concentration (7.5 mM) of methyl-β-cyclodextrin (Sigma) in RPMI for 2 hours at 37°C, the treated RBCs were washed with PBS and hemolysis assays were performed as described above. Two independent tests with five technical replicates were performed for each hemolysis assay.

[5] = test system: RBCs infected by schizonts of P. falciparum 3D7; assay: Hemolytic activity on RBCs infected by schizonts; type: cell-based, human; details: percoll-purified 3D7 schizonts, 2% hematocrit in PBS
Description: To test the hemolytic activity of the peptides against RBCs infected by Plasmodium, schizonts of the P. falciparum 3D7 strain were collected. The parasite culture of mainly schizonts was centrifuged and resuspended to 50% hematocrit. Then, the resuspended culture was carefully laid on top of the gradient with 3 mL 70% and 3 mL 40% percoll-sorbitol solution. After centrifugation at 2,300 × g for 20 min at 20°C, schizonts from the 40/70% interface were collected and washed twice with 10× volume of ICM. The collected parasites were resuspended in PBS to 2% hematocrit for hemolysis assay as described above.

[6] = test system: Plasmodium falciparum 3D7; assay: Transmission electron microscope analysis of parasite morphology; type: cell-based; details: TEM
Description: 3D7 strain parasites with parasitemia of 3% ~ 5% at a hematocrit of 2% were planted in 12-well plates, 3 mL/well. A 40-µM concentration of An-cecB or 200 µM An-cecB-1 was added and incubated for 30 min or 60 min. PBS was used as a control.
After incubation, the parasites were washed three times with ICM, and the electron microscope fixative solution (provided by the company) was added to keep the parasites clumped for 2 hours at room temperature. Finally, the samples were sent to a commercial company at 4°C for transmission electron microscope analysis.

[7] = test system: Plasmodium berghei (ANKA); type: in vivo; details: parasitemia on day 4, BALB/c mice
Description: The in vivo antimalarial activity of peptides was evaluated using a 4-day suppressive test in P. berghei-infected mouse model mice ([44]). The mice were divided into five groups of six mice. Donor mice were infected with 200 µL of P. berghei parasite inoculum by intraperitoneal injection. Parasitized blood was collected from the tail vein of donor mice and diluted with 0.9% sodium chloride solution. Mice were then infected with saline suspension of 1 × 10^7 parasitized erythrocytes (0.2 mL) by intraperitoneal injection (Day0). Four hours after infection, each of the three groups of mice was treated with peptide by intraperitoneal injection at daily doses of 10, 25, and 50 mg/kg for 4 consecutive days. Positive control mice were treated with chloroquine at daily doses of 10 mg/kg and negative control mice with normal saline. On day 4 (96 hours post infection), the parasitemia of each mouse was determined under a light microscope by examination of Giemsa’s solution-stained thin blood smears prepared from mouse tail blood ([28]). The mean parasitemia in each group of mice was used to calculate the % suppression for each dose using the following formula:
%suppression = (parasitemia of negative control − parasitemia of test) * 100/parasitemia of negative control.
The antimalarial activity of the peptides was determined from the ratio of the percentage of parasite reduction in treated and negative control groups ([44]). Results were expressed as median (range) values.

[8] = 200 µM peptide, 3D7, Giemsa smears
[9] = 50 µM peptide, 72 h, ring stage, 1% parasitemia, 2% hematocrit, Giemsa smears
[10] = 40 µM An-cecB or 200 µM An-cecB-1, total 20 / 22

Description for HEK293T cells: The mammalian cell lines HepG2 and HEK293T were used for cytotoxicity tests. The cells were cultured in Dulbecco’s modified Eagle medium supplemented with 10% fetal bovine serum and 1% penicillin/streptomycin in an incubator at 37°C with 5% CO2. Cells were seeded at a density of 1 × 10^5 cells/mL per well into a 96-well plate overnight and treated with different concentrations of peptides for 48 hours. To analyze the CC50 of peptides, a series of concentrations of peptides (0, 5, 10, 20, 30, 40, 50, 60, and 70 µM) were set to detect their cytotoxic concentrations. Then, 10% CCK-8 solution was added into each well and incubated for another 2 hours. The absorbance was monitored by a microplate reader at 450 nm. PBS was used as a negative control and the inhibition of each drug was normalized to that of the PBS control. CC50 was calculated by GraphPad Prism. Two independent assays with three technical replicates each time were conducted.

## RAAKKALPVIAGYKAL-NH2 [An-cecB-2]
[1]; [8]
  inhibition rate: 12.14%
HEK293T cells
  cytotoxicity to HEK293T cells: No cytotoxicity

## GKRLEKLGRNVFRAAKK-NH2 [An-cecB-3]
[1]; [8]
  inhibition rate: 24.74%
HEK293T cells
  cytotoxicity to HEK293T cells: No cytotoxicity

## RRFKKFLKKVEGAGRRVANAA QKGLPLAAGVKGL-NH2 [An-cecC]
[1]; [9]
  inhibition rate: 40.16%

## APRWKFGKRLEKLGRNVF-NH2 [An-cecB-1]
[1]; [8]
  inhibition rate: 83.67%
[1]; 3D7, 72 h incubation, Giemsa smears, GraphPad Prism, two independent assays, three technical replicates
  pIC50: 4.16
Bacillus subtilis (ATCC); OD600
  MIC: 25 µM
Bacillus subtilis (ATCC); OD600, GraphPad Prism
  MIC50: 18.94 µM
[2]; OD600
  MIC: 25 µM
[2]; OD600, GraphPad Prism
  MIC50: 12.7 µM
[3]; OD600
  MIC: > 200 µM
[3]; OD600, GraphPad Prism
  MIC50: > 200 µM
[4]
  hemolysis of cholesterol-depleted erythrocytes: no hemolysis effect
[5]
  hemolytic activity to infected erythrocytes: did not
[6]; 40 µM An-cecB or 200 µM An-cecB-1, 30 or 60 min, total 20 (An-cecB), 22 (An-cecB-1)
  Normal (number of parasites): 7
[6]; [10]
  Disintegration (number of parasites): 0
  Parasite disoriented (number of parasites): 0
  Parasite membrane dissolution (number of parasites): 2
  Parasite shrunken (number of parasites): 15
  Vacuole formation (number of parasites): 7
[7]; 10 mg/kg daily i.p. for 4 consecutive days
  Inhibition (%) of P. berghei growth: 17.03%
[7]; 25 mg/kg daily i.p. for 4 consecutive days
  Inhibition (%) of P. berghei growth: 39.35%
[7]; 50 mg/kg daily i.p. for 4 consecutive days
  Inhibition (%) of P. berghei growth: 54.19%
HEK293T cells
  cytotoxicity to HEK293T cells: No cytotoxicity

## GRLKKLGKKIEGAGKRVFKAA EKALPVVAGVKAL-NH2 [An-cecA]
[1]; [9]
  inhibition rate: 18.7%
